Laboratory results: patent publication US20170057948A1, “INDOLE-LIKE TRK RECEPTOR ANTAGONISTS” (Tallinn University of Technology, priority 2015, published 2017)
Converted amounts (≈) assume the structure as drawn.

Columns and labels:
TrkA [1] = biological target: T1, TrkA (Rattus norvegicus, UniProt P35739); assay: PC-12/luc/Elk1 luciferase reporter cellular assay (NGF-induced); type: cell-based; details: 50 ng/ml NGF, 18 h treatment
T1 construct: endogenous in cells; host or cells: PC-12 and PC-12/luc/Elk1 (rat pheochromocytoma)
Text: A stably transfected cell line was generated in order to assess the capability of the compounds to inhibit the activation of TrkA receptor in the natural (neural) cellular context. Once the endogenic TrkA of the PC-12/luc/Elk1 cell line becomes activated, the downstream events result in phosphorylation of Elk1, the GAL4-dbd fused to Elk1 binds then to GAL4 UAS and activates the transcription of luciferase (FIG. 3). To address the suitability of the generated system for screening application, the Z′-factor was determined (see also Examples section). […] Z′-factor value above 0.5 is considered an indication of a high quality assay. The timeframe of 18 hours with the highest Z′-factor value was chosen for subsequent experiments.
PC-12 (rat adrenal pheochromocytoma cell line) cells were transfected using LIPOD293 DNA In Vitro Transfection Reagent (SignaGen) with 1 μg of pFA2-Elk1 plasmid and 4 μg of pFR-LUC plasmid (PathDetect Elk1 trans-Reporting System; Agilent Technologies). pFA2-Elk1 plasmid codes for the fusion protein consisting of GAL4-dbd (DNA-binding domain) followed by Elk1 transcription factor and contains Geneticin G418 resistance gene neomycin. pFR-LUC plasmid codes for GAL4 upstream activation sequence (UAS) followed by luciferase reporter gene. A puromycin resistance gene was introduced to the pFR-LUC plasmid using Bst1107I and NdeI restrictases from pGL4.22[luc2CP/Puro] (Promega). The selection of transfected cells was initiated two days after the transfection with addition of 300 μg/ml of G418 (Sigma) and 0.75 μg/ml of puromycin (Sigma-Aldrich) and continued for about one and a half months until distinct cell colonies could be picked, plated, and tested for responsiveness to NGF. Generated cell line, called hereafter PC-12/luc/Elk1, was maintained in Dulbecco's Modified Eagle's Medium (DMEM; PAA) containing 6% fetal bovine serum (FBS; PAA), 6% horse serum (HS; PAA), 1% penicillin/streptomycin (PS; Gibco), 300 μg/ml of Geneticin G418, and 0.75 μg/ml of puromycin. […] PC-12 cells were maintained in DMEM containing 6% FBS, 6% HS, and 1% PS.
PC-12/luc/Elk1 cells were plated one day before the assay on 96 well plates in 25,000 cells per well. […] The plate was subjected to 10 minutes of shaking and, thereafter, analyzed using TECAN plate reader. […]
The IC50's of the compounds were determined using cellular and biochemical assays. In the cellular assays, using PC-12/luc/Elk1 and MG87/TrkB/luc/Elk1 cells, the compounds were assessed in gradual dilutions of the compounds in triplets together with NGF or BDNF (Peprotech), respectively. TrkA inhibition was determined using same methodology as for measuring the Z′-factor with 18 h treatment time. […]

[2] = biological target: 48 kinases representing the human kinome; assay: In vitro kinase profiling, panel of 48 kinases (off-targets); type: biochemical; details: 100 nM
Text: (§1) The biochemical kinase assays were custom ordered from ProQinase, Germany.

[3] = system: cortical neurons, PC-12 cells or dividing MG87/TRKB/luc/Elk1 cells; assay: Toxic or adverse effect on cells (summary statement); type: cell-based
Text: The Trk antagonists of the invention share a similar indole-like basic structure; however, substituent substitution yielded compounds with markedly high activity and specificity for the Trk family.

Syk [4] = biological target: T2, Syk (Homo sapiens, UniProt P43405); details: cited from earlier work
Syk [5] = biological target: T2, Syk; assay: In vitro kinase profiling (48 kinases), Syk; type: biochemical; parameters: Aurora-B, CaMMK2, Chk2, Irak4, Lck, Map3K11, Syn aa1-635, TrkA, TrkB, and TrkC; purchased ProQinase, Germany (custom-ordered assay service); details: for inhibition of Syk: own experiments
Text: as §1

TrkA [6] = biological target: T1, TrkA; assay: Western blot of phosphorylated TrkA in PC-12 cells; type: cell-based; details: concurrently with NGF, statistically significant reduction at 1 μM
Protocol: (§2) The compounds were tested on PC-12 and MG87/TrkB/luc/Elk1 cells that express TrkA and TrkB, respectively. The cells were treated concurrently with NGF or BDNF and the compounds at three different concentrations. The levels of phosphorylated kinases were assessed using respective antibodies and further quantification of western blot signals. […] Additionally, in these two distinct cellular systems the activity of the Trk proteins may be incomparable due to their different concentration or interaction partners that can affect their behavior. For this reason, most probably there is no big selectivity of these compounds for the Trk kinases which is expected, as the ATP-binding pockets of Trk proteins are highly similar.
(§3) The PC-12 and MG87/TrkB/luc/Elk1 cells were plated on 6-well plates one day prior to the assay. Cells were treated for 10 minutes with compounds and simultaneously with 50 ng/ml of NGF (PC-12 cells) or BDNF (MG87/TrkB/luc/Elk1 cells). 0.1% of DMSO was used to determine the base level, 0.1% of DMSO concurrently with 50 ng/ml of NGF or BDNF served as a negative control and 0.1% of DMSO concurrently with 5 nM of AZ-23 as a positive control. Thereafter, western blotting was performed as described previously. Antibodies used included: rabbit anti-TrkA (#06-574; 1:1000) from Millipore; rabbit anti phospho-TrkA (#9141; 1:1000), rabbit anti phospho-TrkA/TrkB (#4619; 1:1000), rabbit anti-TrkB (#4603; 1:1000) and rabbit anti phospho-Akt (#4058; 1:3000) from Cell Signaling; mouse anti phosphor-Erk1/2 (#sc-7383; 1:1000) from Santa Cruz and anti-tubulinβ clone E7 (1:1000) from Prof. Michael Klymkovsky.

TrkB = biological target: T3, TrkB (Rattus norvegicus, UniProt Q63604); assay: Western blot of phosphorylated TrkB in MG87/TrkB/luc/Elk1 cells; type: cell-based; details: concurrently with BDNF, statistically significant reduction at 1 μM
T3 construct: expressed in transfected cells; host or cells: MG87/TrkB/luc/Elk1
Protocol: as §2, §3

Akt and Erk1/2 = assay: Western blot of phosphorylated downstream kinases; type: cell-based; details: compared to NGF or BDNF alone
Protocol: as §2, §3

TrkA [7] = biological target: T4, TrkA (Homo sapiens, UniProt P04629); assay: In vitro kinase profiling (48 kinases), TrkA; type: biochemical; details: 1 μM concentration; read-out: residual activity of TrkA
T4 construct: purchased ProQinase, Germany (custom-ordered assay service)
Protocol: According to the results, at concentration of 100 nM all compounds were relatively TrkA specific inhibiting only up to 3 off-target kinases, while reducing the activity of TrkA by at least 82% at 100 nM concentration and 94% at 1 μM concentration. At 100 nM, 2a25 was able to inhibit only TrkA. […] Kinases that were inhibited by most of the compounds at 1 concentration included Aurora-B, CAMKK2, CHK2, IRAK4, LCK, and MAP3K11.
as §1

Syk [8] = biological target: T2, Syk; details: 1 μM concentration; cited from earlier work
TrkA [9] = biological target: T4, TrkA; details: 1 μM concentration; cited from earlier work
Rat cortical cells = assay: Viability of primary cortical neurons (neuron count); type: cell-based; details: 24 h, even at 1 μM concentration
Protocol: Neurons were grown in NEUROBASAL, a medium supplemented with B27 with phenol red on ploy-L-lysine-coated 35 mm glass bottomed dishes. Culture media and supplements were obtained from Invitrogen (Carlsbad, Calif.). For viability measurements neurons were first transfected with neuronal maker, pAAV-hSyn-DsRedExpress obtained from Addgene (Cambridge, Mass.) allowing better to assess the morphology of individual neurons. Briefly, the condition medium was replaced with 100 μL Opti-MEM 1 medium, containing 2% Lipofectamine 2000 and 1-2 μg of total DNA. Neurons were incubated for 3-4 hrs, after which fresh medium was added.

MG87/TrkB/luc/Elk1 cells = assay: Cellular ATP content, CellTiter-Glo viability assay; type: cell-based; details: different concentrations, 24 h
Protocol: ATP was measured at least from 8 different wells per treatment condition.

In vivo toxicology study = details: C57/B16 mice
Aqueous solubility = type: physicochemical; details: room temperature

T3 sequence (Q63604 32-821): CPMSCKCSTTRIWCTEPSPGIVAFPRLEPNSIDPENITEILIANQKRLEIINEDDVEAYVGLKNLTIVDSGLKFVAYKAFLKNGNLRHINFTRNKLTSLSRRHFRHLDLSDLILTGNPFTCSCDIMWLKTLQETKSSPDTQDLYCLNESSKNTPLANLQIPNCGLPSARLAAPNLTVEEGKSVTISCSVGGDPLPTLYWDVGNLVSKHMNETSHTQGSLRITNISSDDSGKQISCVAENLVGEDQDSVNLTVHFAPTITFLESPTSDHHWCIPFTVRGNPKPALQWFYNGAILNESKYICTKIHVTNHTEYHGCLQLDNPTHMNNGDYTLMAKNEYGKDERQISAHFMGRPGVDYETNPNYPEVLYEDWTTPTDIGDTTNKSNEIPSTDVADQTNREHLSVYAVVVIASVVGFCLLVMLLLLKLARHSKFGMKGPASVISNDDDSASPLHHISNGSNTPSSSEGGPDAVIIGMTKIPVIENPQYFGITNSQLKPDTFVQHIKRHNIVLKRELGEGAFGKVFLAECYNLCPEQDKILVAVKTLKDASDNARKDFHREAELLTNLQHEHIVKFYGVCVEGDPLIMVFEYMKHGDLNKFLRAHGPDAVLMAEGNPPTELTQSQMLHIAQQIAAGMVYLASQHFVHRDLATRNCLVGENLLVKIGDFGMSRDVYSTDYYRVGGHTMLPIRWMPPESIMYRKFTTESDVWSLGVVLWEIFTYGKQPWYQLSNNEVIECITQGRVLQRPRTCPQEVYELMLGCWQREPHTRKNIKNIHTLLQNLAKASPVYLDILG
T1 sequence (P35739 33-799): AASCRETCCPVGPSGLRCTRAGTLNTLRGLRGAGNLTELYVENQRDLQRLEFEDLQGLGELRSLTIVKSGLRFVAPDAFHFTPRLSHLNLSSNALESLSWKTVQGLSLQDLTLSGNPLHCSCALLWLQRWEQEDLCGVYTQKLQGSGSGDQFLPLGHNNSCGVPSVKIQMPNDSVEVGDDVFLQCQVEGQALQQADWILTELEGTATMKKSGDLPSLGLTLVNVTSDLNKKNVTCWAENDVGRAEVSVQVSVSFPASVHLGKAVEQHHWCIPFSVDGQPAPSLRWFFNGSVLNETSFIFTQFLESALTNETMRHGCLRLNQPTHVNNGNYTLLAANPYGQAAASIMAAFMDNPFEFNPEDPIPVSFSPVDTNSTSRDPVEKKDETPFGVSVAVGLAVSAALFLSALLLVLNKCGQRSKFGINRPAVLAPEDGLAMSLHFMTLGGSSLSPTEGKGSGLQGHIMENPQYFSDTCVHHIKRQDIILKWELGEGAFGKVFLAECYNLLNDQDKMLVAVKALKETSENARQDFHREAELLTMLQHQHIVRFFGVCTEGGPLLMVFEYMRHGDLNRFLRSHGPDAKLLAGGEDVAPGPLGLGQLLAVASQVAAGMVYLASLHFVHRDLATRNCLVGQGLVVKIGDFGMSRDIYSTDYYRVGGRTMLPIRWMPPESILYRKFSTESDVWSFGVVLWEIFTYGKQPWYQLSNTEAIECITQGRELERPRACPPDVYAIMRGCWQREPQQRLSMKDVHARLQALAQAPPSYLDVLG
T4 sequence (P04629 33-796): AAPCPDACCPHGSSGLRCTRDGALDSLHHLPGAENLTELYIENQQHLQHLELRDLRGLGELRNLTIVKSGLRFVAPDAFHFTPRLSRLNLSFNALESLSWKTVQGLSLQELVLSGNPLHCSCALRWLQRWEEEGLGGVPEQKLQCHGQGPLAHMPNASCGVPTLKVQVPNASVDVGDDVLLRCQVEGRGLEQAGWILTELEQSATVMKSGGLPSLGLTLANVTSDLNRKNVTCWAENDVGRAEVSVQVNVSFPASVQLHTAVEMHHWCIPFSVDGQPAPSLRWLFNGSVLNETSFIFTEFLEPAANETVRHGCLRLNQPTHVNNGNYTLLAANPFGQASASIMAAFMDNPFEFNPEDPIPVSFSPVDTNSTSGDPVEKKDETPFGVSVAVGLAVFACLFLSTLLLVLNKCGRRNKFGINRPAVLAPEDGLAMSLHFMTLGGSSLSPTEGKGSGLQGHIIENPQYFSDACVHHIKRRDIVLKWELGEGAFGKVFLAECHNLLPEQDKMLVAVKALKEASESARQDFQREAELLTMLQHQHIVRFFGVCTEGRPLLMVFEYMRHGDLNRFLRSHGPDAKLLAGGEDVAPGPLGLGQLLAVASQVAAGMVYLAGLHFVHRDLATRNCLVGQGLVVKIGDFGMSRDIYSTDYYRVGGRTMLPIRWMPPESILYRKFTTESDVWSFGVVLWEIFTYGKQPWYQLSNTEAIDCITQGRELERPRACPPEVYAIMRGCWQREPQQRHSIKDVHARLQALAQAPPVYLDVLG

Row | SMILES | IC50 (TrkA [1]) [µM] | kinases whose activity was reduced at least by 50% [2] | toxic or adverse effect on cells [3] | reported effect on Syk activity (Syk [4]) | inhibition of Syk (Syk [5]) | phosphorylation of TrkA (TrkA [6]) | phosphorylation of TrkB (TrkB) | phosphorylation of downstream kinases Akt and Erk1/2 (Akt and Erk1/2) | remaining activity at 1 µM (TrkA [7]) [%] | residual activity of Syk (Gao et al.) (Syk [8]) [%] | residual activity of TrkA (Gao et al.) (TrkA [9]) [%] | remaining activity at 1 µM (Syk [5]; read-out: residual activity of Syk) [%] | number of viable neurons (Rat cortical cells) | cell viability (cellular ATP content) (MG87/TrkB/luc/Elk1 cells) | toxic effects in mice (In vivo toxicology study) | solubility (Aqueous solubility; aqueous medium (not further specified)) [µg/mL] | aqueous solubility (Aqueous solubility) [µM]
1 | COc1ccc2[nH]cc(/C=C3\C(=O)Nc4ccc(S(N)(=O)=O)cc43)c2c1 [Compound 2a23, (Z)-3-((5-methoxy-1H-indol-3-yl)methylene)-2-oxindole-5-sulfonamide] | ≤ 0.1 | only one kinase in addition to the Trk kinases | no toxic or adverse effect | Syk inhibitors | failed to inhibit Syk at significant levels | – | – | – | – | – | – | – | – | – | – | – | –
2 | CNS(=O)(=O)c1ccc2c(c1)/C(=C/c1cn(C)c3ccc(OC)cc13)C(=O)N2 [Compound 4a22, (Z)-3-((5-methoxy-1-methyl-1H-indol-3-yl)methylene)-N-methyl-2-oxindole-5-sulfonamide] | – | – | no toxic or adverse effect | – | – | effectively inhibited | effectively inhibited | diminished | – | – | – | – | – | – | – | – | –
3 | COc1ccc2c(c1)c(/C=C1\C(=O)Nc3ccc(S(N)(=O)=O)cc31)cn2C [Compound 2a22] | – | – | no toxic or adverse effect | – | – | effectively inhibited | effectively inhibited | diminished | – | – | – | – | – | – | – | – | –
4 | CN(C)S(=O)(=O)c1ccc2c(c1)/C(=C/c1cn(C)c3ccc(O)cc13)C(=O)N2 [Compound 3a25, (Z)-3-((5-hydroxy-1-methyl-1H-indol-3-yl)methylene)-N,N-dimethyl-2-oxindole-5-sulfonamide] | ≤ 0.1 | only one kinase in addition to the Trk kinases | no toxic or adverse effect | – | – | – | – | – | – | – | – | – | – | – | – | – | –
5 | Cn1cc(/C=C2\C(=O)Nc3ccc(S(N)(=O)=O)cc32)c2ccccc21 [Compound 2a21] | ≤ 0.1 | – | no toxic or adverse effect | Syk inhibitors | failed to inhibit Syk at significant levels | – | – | – | 2 | 38 | 1 | 47 | – | – | – | – | –
6 | COc1ccc2c(c1)c(/C=C1\C(=O)Nc3ccc(S(=O)(=O)N(C)C)cc31)cn2C [Compound 2a25, (Z)-3-((5-methoxy-1-methyl-1H-indol-3-yl)methylene)-N,N-dimethyl-2-oxindole-5-sulfonamide] | ≤ 0.1 | only TrkA | no toxic or adverse effect | not to suppress Syk activity | – | effectively inhibited | effectively inhibited | diminished | – | – | – | – | No reduction | no effect | no toxic effects | 3.2 ± 0.1 (≈ 7.78 µM) | 7.8 ± 0.2 (≈ 3.21 µg/mL)
